Measured values from patent US12391751B2, “Antibody against advanced glycation end products and use thereof” (Bloom Technology Corporation, priority 2018, dated 2025).

Experiments:
PB-1 antibody = test: Competitive ELISA of GAL691 and known AGEs against PB-1 (Example 31); assay type: binding, mouse; conditions: immobilized A-peak-BSA; competitor 0.04 to 2.5 mM; PB-1 0.1 μg/mL
Procedure: Competitive ELISA was conducted using the reagents described in Example 13. A solution of A-peak-BSA prepared into 1 μg/mL in a coating solution was added at 100 μL/well to a 96-well microtiter plate (Costar) and incubated overnight at 4° C.
(§1) Each well after the immobilization treatment was washed three times with a washing solution (300 μL), and a blocking solution (200 μL) was added thereto and left at room temperature for 1 hour.
GAL691 (prepared in Example 16), GLAP (prepared in Example 12), Lys-hydroxy-triosidine (prepared in Example 17), GA-pyridine (prepared in Example 28), GOLD (prepared in Example 29), and Z-Lys were each dissolved in a phosphate buffer solution (0.2 M, pH 7.4) to prepare a 100 mM solution. Then, a 10 mM solution was prepared by dilution 10-fold with a diluting solution containing BSA (1 mg/mL, FUJIFILM Wako Pure Chemical Corp.). Sample solutions of 4-fold dilution series of 0.04, 0.16, 0.63, and 2.5 mM were further prepared with a diluting solution containing a 10% (v/v) phosphate buffer solution and 1 mg/mL BSA. Ten-fold dilutions of a phosphate buffer solution with a diluting solution containing 1 mg/mL BSA were prepared as blank solutions containing no sample in the same way as above. A 0.1 μg/mL solution of the PB-1 antibody was prepared with a diluting solution containing 1 mg/mL BSA.
Each well treated with the blocking solution was washed three times with a washing solution (300 μL), and the sample solutions of 4-fold dilution series (50 μL each) and the PB-1 antibody dilution solution (50 μL) were added thereto, stirred with a plate mixer for 2 minutes, and then incubated at room temperature for 1 hour.
After the competitive reaction, each well was washed three times with a washing solution (300 μL), and peroxidase-labeled anti-mouse IgG (H+L) polyclonal antibody, F(ab′)2 fragment (Kirkegaard & Perry Laboratories, Inc.) diluted into 0.05 μg/mL with a diluting solution containing 1 mg/mL BSA was added at 100 μL/well and left standing at room temperature for 1 hour.
After washing three times with a washing solution (300 μL), a substrate solution (ELISA POD substrate TMB kit (Popular), Nacalai Tesque, Inc.) was added at 100 μL/well and incubated at room temperature for 10 minutes under light shielding. Then, color development was terminated by the addition of 2 N sulfuric acid (50 μL).
(§2) Absorbance was measured at a dominant wavelength of 450 nm and a sub-wavelength of 650 nm with a microplate reader (Cytation 5, BioTek Instrument Inc.), and the absorbance at the sub-wavelength was subtracted from the absorbance at the dominant wavelength. Change in the absorbance of GAL691, GLAP, Lys-hydroxy-triosidine, GA-pyridine, GOLD, and Z-Lys was indicated as relative values to the absorbance of the blank solution.

[1] = test system: POD-labeled novel monoclonal antibody (SJ-5); test: Competitive ELISA of GAL691 and Lys-hydroxy-triosidine against SJ-5 (Example 18); assay type: binding, mouse; conditions: immobilized Glycer-AGEs-BSA; competitor 0.625 to 10 mg/mL
Procedure: A solution of BSA containing AGEs derived from glyceraldehyde (stock solution: 10 mg/mL PBS solution) prepared into 1 μg/mL in a coating solution was added at 100 μL/well to a 96-well microtiter plate (COSTAR) and incubated overnight at 4° C.
as §1
GAL691 (prepared in Example 16) and Lys-hydroxy-triosidine (prepared in Example 17) were each dissolved in a phosphate buffer solution (0.2 M, pH 7.4) to prepare a 10 mg/mL solution. Sample solutions of 2-fold dilution series from 0.625 to 10 mg/ml (5 points) were further prepared by dilution with a diluting solution. Dilution solutions were also prepared from a blank solution containing no sample in the same way as above. […]
as §2, with “GAL691” for “GAL691, GLAP, Lys-hydroxy-triosidine, GA-pyridine, GOLD,”, “Lys-hydroxy-triosidine” for “Z-Lys”

[2] = Formation of singlet oxygen through photosensitizing effect, ESR with 4-OH-TEMP (Examples 21, 22); conditions: astaxanthin final concentration 2.5 mM; blue light
Procedure: 25 μL of GAL691 or Z-Lys(Z)-OH (10 mM, PBS solution), 12.5 μL of 4-hydroxy-2,2,6,6-tetramethylpiperidine (4-OH-TEMP; Tokyo Chemical Industry Co., Ltd., 400 mM, PBS solution), and 12.5 μL of PBS were mixed in a 0.6 mL microtube (Watson) to prepare a reaction solution. 4-OH-TEMP changes into a nitroxide radical by capturing singlet oxygen and is therefore often utilized in the detection of singlet oxygen using ESR (Nakamura et al., J. Clin. Biochem. Nutr., 2011, 49 (2), 87-95). The reaction solution was irradiated with light at UV 365 nm, blue 470 nm, green 530 nm, or red 630 nm for 1 hour using a portable LED light source (MeCan Imaging Inc.). Then, ESR measurement was performed using a portion (50 μL) of each reaction solution. The ESR measurement was carried out under the same conditions as in Example 10 except for some parameters. The changed measurement parameters are as follows: […]
In order to quantify the concentration of the formed nitroxide radical, the following analysis was conducted: the spectrum of the observed nitroxide radical was first simulated with SpinFit module in Xepr software (Bruker Corp.) to identify a radical species (g=2.0058, I=1, AN=17.05 G). Then, the spin concentration (μM) of the simulated nitroxide radical was determined with SpinCount module. […]

SMILES | change in absorbance relative to blank (competition for PB-1 binding) (PB-1 antibody) | change in absorbance relative to blank (competition for SJ-5 binding) [1] | capture of singlet oxygen generated by GAL691 and light irradiation [2]
CC(=O)NC(CCCCNCc1cc(O)c[n+](CCCCC(NC(C)=O)C(=O)O)c1)C(=O)O (stereo not drawn) [Lys-hydroxy-triosidine] | no reduction in absorbance was observed | no reduction in absorbance was observed | –
CC1=C(/C=C/C(C)=C/C=C/C(C)=C/C=C/C=C(C)/C=C/C=C(C)/C=C/C2=C(C)C(=O)[C@@H](O)CC2(C)C)C(C)(C)C[C@H](O)C1=O [astaxanthin] | – | – | captured
